Experimental data as given in US20060009520A1, “Retinoid-based methods for altering macrophage cholesterol” (priority 2004, published 2006).

What was measured:
ABCA1 protein [1] = assay: Western blot of ABCA1 protein in mouse peritoneal macrophages; type: cell-based; conditions: 24 h
Description: (§1) Protein extracts from macrophages were prepared by lysing the cells in modified radioimmunoprecipitation assay buffer (50 mM Tris, 150 mM NaCl, 1 mM EDTA. 1% Triton X-100) containing a protease inhibitor cocktail (Complete EDTA Free; Roche). Protein content in the extracts was determined by using the DC protein assay (Bio-Rad, Hercules, Calif.). Equal amounts of protein (40 to 50 μg) were separated by electrophoresis with 4 to 15% acrylamide gradient gels (Bio-Rad) and then transferred to nitrocellulose membrane (Trans-Blot Transfer Medium; Bio-Rad). Membranes were probed with anti-ABCA1 antibody (Novus Biologicals, Littleton, Colo.) and anti-β-actin antibody (Sigma) according to the manufacturer's recommendations. Immunoblots were developed by using a chemiluminescent detection system (Super Signal West Pico chemiluminescent substrate; Pierce, Rockford, Ill.).

ABCA1 protein [2] = assay: Western blot of ABCA1 protein in human monocyte-derived macrophages; type: cell-based; conditions: human primary monocytes/macrophages, 10 μM, 24 h
Description: as §1

[3] = tested on: ABCA1, ABCG1, SREBP-1c, apoE, LXRα, Cyp26 mRNA; assay: Quantitative real-time PCR of LXR target genes and Cyp26 in mouse peritoneal macrophages; type: cell-based; conditions: 24 h
Description: Total RNA was isolated from mouse peritoneal macrophages or ˜50 mg of mouse liver tissue by using the RNeasy Mini kit (Qiagen, Valencia, Calif.) or RNA-Bee reagent (Tel-Test, Inc., Friendswood, Tex.), respectively, according to the manufacturer's protocol. Real-time quantitative PCR assays were performed by using the Mx4000 Quantitative PCR System (Stratagene, La Jolla, Calif.). Briefly, 5 μg of total RNA was treated with RNase-free DNase I (Ambion, Austin, Tex.), and first-strand cDNA was synthesized with oligo(dT)12-18 by using a Superscript II RNase H^− reverse transcriptase reagent kit (Invitrogen) according to the manufacturer's protocol. For quantification of mouse ABCA1, ABCG1, SREBP-1c, LXRα, ApoE, and fatty acid synthase (FAS) mRNA levels, each amplification mixture contained 62.5 ng of cDNA, appropriate concentrations of forward and reverse primers and of dual-labeled fluorogenic probe (Biosearch Technologies, Novato, Calif.), and 12.5 μl of TaqMan Universal PCR master mix (Applied Biosystems, Foster City, Calif.). PCR thermocycling parameters were 50° C. for 2 min, 95° C. for 10 min, and 45 cycles of 95° C. for 15 s and 60° C. for 1 min. All samples were analyzed for β-actin expression in the same run. Quantitative expression values were extrapolated from standard curves for the gene of interest with 10-fold dilutions of cDNA (in triplicate). Each sample was normalized to β-actin, triplicates were averaged, and relative mRNA levels were determined. The following mouse primers and probes were used: mouse ABCA1 (mABCA1) forward (F) (5′-[…]-3′), mABCA1 reverse (R) (5′-[…]-3′), and mABCA1 TaqMan probe (5′-FAM-[…]-BHQ-3′); mABCG1 F (5′-[…]-3′), mABCG1 R (5′-[…]-3′), and mABCG1 TaqMan probe (5′-FAM-[…]-BHQ-3′); mSREBP-1c F (5′-[…]-3′), mSREBP-1c R (5′-[…]-3′), and mSREBP-1c TaqMan probe (5′-FAM-[…]-BHQ-3′); mApoE F (5′-[…]-3′), mApoE R (5′-[…]-3′), and mApoE TaqMan probe (5′-FAM-[…]-BHQ-3′); mLXRα F (5′-[…]-3′), mLXRα R (5′-[…]-3′), and mLXRα TaqMan probe (5′-FAM-[…]-BHQ-3′); mFAS F (5′-[…]-3′), mFAS R (5′-[…]-3′), and mFAS TaqMan probe (5′-FAM-[…]-BHQ-3′); and mβ-actin F (5′-[…]-3′), mβ-actin R (5′-[…]-3′), and mβ-actin TaqMan probe (5′-JOE-[…]-BHQ-3′).
(§2) For quantification of mouse Cyp26 mRNA levels, each amplification mixture (25 μ) contained 62.5 ng of cDNA, 100 nM concentrations of reverse and forward primers, and 2.5 μl of 10× SYBR Green PCR master mix (Perkin-Elmer Life Sciences, Boston, Mass.). Quantitative expression values were extrapolated from standard curves for Cyp26 expression with 10-fold dilutions of cDNA (in triplicate). Each sample was normalized to β-actin that was deduced from TaqMan assays, triplicate results were averaged, and relative Cyp26 mRNA levels were determined. The primers mCyp26 F (5′-[…]-3′) and mCyp26 R (5′-[…]-3′) were used. RNA measurements from human monocyte-derived macrophages were performed as described previously (10, 44).

[4] = tested on: ABCA1, ABCG1, SREBP-1c, apoE, LXRα, Cyp26 mRNA; assay: Quantitative real-time PCR of LXR target genes and Cyp26 in human monocyte-derived macrophages; type: cell-based
Description: as §2

RARγ protein = assay: Western blot of RARγ protein in macrophages; type: cell-based; conditions: macrophages incubated with ATRA
Description: Nuclear protein extracts from tissues and macrophages were isolated according to the following method. Tissue samples and cells were first homogenized on ice and then lysed in lysis buffer (10 mM Tris [pH 7.5], 3 mM MgCl2, 10 mM NaCl, 0.5% NP-40) containing protease inhibitor cocktail. The nucleus was then pelleted by centrifugation for 10 min at 6,000× g, immediately resuspended in a nucleus suspension buffer (250 mM Tris [pH 8.0], 60 mM KCl, I mM dithiothrietol), and then rotated for 1 h. […] The intensities of the bands were quantified by using ImageQuant and normalized to (β-actin.

[5] = tested on: acute promyelocytic leukemia; conditions: patients with acute promyelocytic leukemia; cited from earlier work
[6] = tested on: ABCA1-mediated cholesterol efflux from mouse peritoneal macrophages; assay: Cholesterol efflux to apoA-I from cholesterol-loaded macrophages
[7] = mouse primary macrophages, ATRA 0.1 to 5 μM
[8] = human primary monocytes/macrophages, ATRA 0.5 to 5 μM, 24 h

## CC1=C(/C=C/C(C)=C/C=C/C(C)=C/C(=O)O)C(C)(C)CCC1 [ATRA, all-trans-retinoic acid]
ABCA1 protein [1]
  ABCA1 protein levels: dose dependently increased
ABCA1 protein [2]
  ABCA1 protein: increased
[3]; mouse peritoneal macrophages, ATRA 0.1 to 5 μM
  ABCA1 mRNA: increase in the mRNA that was parallel to the dose response of protein and cholesterol efflux
[3]; mouse primary macrophages
  lowest dose giving ABCA1 mRNA response: 0.25 µM
[3]; [7]
  ABCG1 mRNA induction: weaker and somewhat inconsistent induction
  LXRα mRNA induction: no significant induction
  SREBP-1c mRNA induction: weaker and somewhat inconsistent induction
  apoE mRNA induction: no significant induction
[4]; human primary macrophages, even at the higher dose
  apoE mRNA induction: not induced
[4]; [8]
  ABCA1 mRNA induction: strong induction
  ABCG1 mRNA induction: strong induction
  LXRα mRNA induction: weaker but significant increases
  SREBP-1c mRNA induction: weaker but significant increases
RARγ protein
  induction of RARγ protein: < 2 fold
[5]
  patients in whom remission is induced: ca. 80%
[6]
  ABCA1-dependent cholesterol efflux to apoA-1, dose response: increased ABCA1-dependent cholesterol efflux to apoA-1 in a dose-dependent fashion
[6]; 1 and 5 μM ATRA
  increase in cholesterol efflux to apoA-I, ATRA compared with TO-901317: comparable to that occurring in macrophages treated with the LXR activator TO-901317
[6]; maximum dose of 10 μM
  increase of cholesterol efflux to apoA-1: ~2 fold
